The record followed here is article PMC6155340, “Isolation and Structure Identification of Novel Brominated Diketopiperazines from Nocardia ignorata—A Lichen-Associated Actinobacterium” (Molecules : A Journal of Synthetic Chemistry and Natural …, 2017).

Series [1] is described as follows: Cytotoxic activity, standard tetrazolium (MTT) assay on HaCaT cells. Type of series: cell-based. Conditions: human, HaCaT keratinocyte cells, 24 h incubation with compound, 1-200 µg/mL. On the procedure: (§1) Cytotoxic properties of pure compounds were determined with a standard tetrazolium assay. B16 (6000 cells/well) and HaCaT (10,000 cells/well) cells were seeded in RPMI 1640 medium with 5% fetal calf serum (FCS) and antibiotic at day 0 in well-plate. Incubation was performed at 37 °C in an atmosphere of 5% CO2. After 24 h of incubation, compounds were added at different concentrations (1, 10, 50, 100, and 200 µg/mL), and the plate was incubated 24 h more (37 °C, 5% CO2). Cell growth and viability were then measured at 540 nm, using a MTT (3-[4,5-dimethylthiazol-2-yl]-2,5-diphenyltetrazolium bromide) assay. Each experiment was repeated at least three times.

The nature of series [2]: Cytotoxic activity, standard tetrazolium (MTT) assay on B16 cells. In kind it is cell-based, murine. The settings on record: mouse, B16 melanoma cells, 24 h incubation with compound, 1-200 µg/mL. On the procedure: as §1

In brackets after ≈: the same amount, converted by molar mass. Non-standard residues stand in square brackets, D forms with d. Residues, ends and D or L forms follow the SMILES beside them. *: point of attachment. Tyr(3-Br) = N[C@@H](Cc1ccc(O)c(Br)c1)C(=O)O; Boc = CC(C)(C)OC(=O)* Some results are limits rather than exact numbers.

With `C[S+]([O-])CC[C@@H]1NC(=O)[C@@H]2CCCN2C1=O` (stereo partly drawn) [Compound 1, cyclo (L-Pro-L-OMet)], the IC50 at 24 h in series [1] and in series [2] was above 200 µg/mL throughout.

`O=C1N[C@@H](Cc2ccc(O)cc2)C(=O)N2CCC[C@@H]12` [Compound 2, cyclo (L-Pro-L-Tyr)]: the IC50 at 24 h in series [1] and in series [2] was above 200 µg/mL each time.

For the molecule `O=C1N[C@@H](Cc2ccc(O)cc2)C(=O)N2CCC[C@H]12` [Compound 3, cyclo (D-Pro-L-Tyr)], the IC50 at 24 h in series [1] and in series [2] was above 200 µg/mL each time.

As for `CC(C)[C@@H]1NC(=O)[C@@H]2CCCN2C1=O` [Compound 4, cyclo (L-Pro-L-Val)], the IC50 at 24 h in series [1] and in series [2] was above 200 µg/mL each time.

Regarding `CC(C)C[C@@H]1NC(=O)[C@@H]2CCCN2C1=O` [Compound 5, cyclo (L-Pro-L-Leu)], the half-maximal inhibitory concentration (IC50) at 24 h in series [1] and in series [2] was above 200 µg/mL in each case.

With `O=C1N[C@@H](Cc2ccc(O)c(Br)c2)C(=O)N2CCC[C@H]12` [Compound 6, cyclo (D-Pro-L-Br-Tyr)], the IC50 at 24 h in series [1] and in series [2] was above 200 µg/mL each time.

As to `O=C1N[C@@H](Cc2ccc(O)c(Br)c2)C(=O)N2CCC[C@@H]12` [Compound 7, cyclo (L-Pro-L-Br-Tyr)], the IC50 at 24 h in series [1] and in series [2] was above 200 µg/mL throughout.

Turning to `O=Cc1c[nH]c2ccccc12` [Compound 8, indole-carboxaldehyde], the IC50 at 24 h came to 79 ± 6 µg/mL (≈ 544 µM) in series [1] and 72 ± 6 µg/mL (≈ 496 µM) in series [2].

For the molecule `COC(=O)[C@H]1CCCN1C(=O)[C@H](Cc1ccc(O)c(Br)c1)NC(=O)OC(C)(C)C` [Compound 13a, Methyl ((S)-3-(3-bromo-4-hydroxyphenyl)-2-((tert-butoxycarbonyl)amino)propanoyl)-D-prolinate] (Boc-[Tyr(3-Br)]-[dP]-OMe), the half-inhibitory concentration (IC50) at 24 h in series [1] and in series [2] was above 200 µg/mL each time.

Turning to `COC(=O)[C@@H]1CCCN1C(=O)[C@H](Cc1ccc(O)c(Br)c1)NC(=O)OC(C)(C)C` [Compound 13b, Methyl ((S)-3-(3-bromo-4-hydroxyphenyl)-2-((tert-butoxycarbonyl)amino)propanoyl)-L-prolinate] (Boc-[Tyr(3-Br)]-Pro-OMe), the IC50 at 24 h was 7 ± 2.5 µg/mL (≈ 14.9 µM) in series [1] and 18 ± 5 µg/mL (≈ 38.2 µM) in series [2].
